Like-named read-outs stand apart in the source and are kept apart here.
Columns and labels:
CYP1A2 = CYP1A2 (Homo sapiens, UniProt P05177); assay: biochemical
MHV-CoV 3CLpro = MHV-CoV 3CLpro (Murine coronavirus, UniProt P0C6X9)
CYP2C19 = CYP2C19 (Homo sapiens, UniProt P33261); assay: biochemical
Human Cathepsin D = Human Cathepsin D (Homo sapiens, UniProt P07339); assay: biochemical
CYP2D6 = CYP2D6 (Homo sapiens, UniProt P10635); assay: biochemical
[1] = Intravenous pharmacokinetics of parent compound in rats, dogs and monkeys
[2] = tested on: SARS-CoV-2 Washington strain 1; type: cell-based
SARS-CoV-2 [3] = assay: microbe, parasite or virus in culture; type: cell-based, Washington SARS-CoV-2
HIV-1 protease = HIV-1 protease (Human immunodeficiency virus type 1 group M subtype B, UniProt P04585); assay: biochemical
SARS-CoV-2 [4] = assay: Antiviral activity in HeLa-ACE2 cells, high content imaging with convalescent sera; type: cell-based, USA-WA1/2020 SARS-CoV-2
in vitro = settings: human
CYP2C9 = CYP2C9 (Homo sapiens, UniProt P11712); assay: biochemical
CYP2C8 = CYP2C8 (Homo sapiens, UniProt P10632); assay: biochemical
CYP3A = assay: in vitro; settings: human, microsomes
OAT1 = OAT1 (Homo sapiens, UniProt Q4U2R8)
IBV-CoV-2 3CLpro = IBV-CoV-2 3CLpro (Avian infectious bronchitis virus, UniProt P0C6Y1); assay: 3CLpro FRET protease activity assay, IBV-CoV-2; type: biochemical
PEDV-CoV-2 3CLpro = PEDV-CoV-2 3CLpro (Porcine epidemic diarrhea virus, UniProt P0C6Y4); assay: 3CLpro FRET protease activity assay, PEDV-CoV-2; type: biochemical
[5] = at clinically relevant exposures
Vero E6-enACE2 cells = settings: read-out: CC50 μM GeoMean (95% CI)
[6] = in vitro
BCRP = BCRP (Homo sapiens, UniProt Q9UNQ0)
OCT2 = OCT2 (Homo sapiens, UniProt O15244)
[7] = cytochrome P450 metabolism, HLM
Human Caspase 2 = Human Caspase 2 (Homo sapiens, UniProt P42575); assay: biochemical
FIPV-CoV-2 3CLpro = FIPV-CoV-2 3CLpro (Feline coronavirus, UniProt Q98VG9); assay: 3CLpro FRET protease activity assay, FIPV-CoV-2; type: biochemical
Human Thrombin = molecular target: T1, Human Thrombin (Homo sapiens, UniProt P00734); assay: biochemical
T1 construct: Human Thrombin

MATE1 = MATE1 (Homo sapiens, UniProt Q96FL8)
[8] = tested on: SARS2 BetaCov GHB-03021/2020; assay: microbe, parasite or virus in culture; type: cell-based, SARS-CoV-2; settings: Severe acute respiratory syndrome coronavirus 2; in the presence of the P-gp inhibitor
Pgp = Pgp (Homo sapiens, UniProt P08183)
HKU9-CoV 3CLpro = HKU9-CoV 3CLpro (Bat coronavirus HKU9, UniProt P0C6W5); type: biochemical
CYP2B6 = CYP2B6 (Homo sapiens, UniProt P20813); assay: biochemical
OCT1 = OCT1 (Homo sapiens, UniProt O15245)
Vero E6-EGFP cells = settings: read-out: CC50 μM GeoMean (95% CI)
hERG = hERG (Homo sapiens, UniProt Q12809)
MATE2K = MATE2K (Homo sapiens, UniProt Q86VL8)
OAT3 = OAT3 (Homo sapiens, UniProt Q8TCC7)
[9] = pH 7.4
HKU4-CoV 3CLpro = HKU4-CoV 3CLpro (Bat coronavirus HKU4, UniProt P0C6W3); type: biochemical
[10] = tested on: P-gp (also known as MDR1 or ABCB1); settings: not told; cited from earlier work
SARS-CoV-2 3CLpro = SARS-CoV-2 3CLpro (Severe acute respiratory syndrome coronavirus 2, UniProt P0DTD1); assay: Thermal-shift binding assay; settings: n=8
CYP3A4 = CYP3A4 (Homo sapiens, UniProt P08684)
OATP1B1 = OATP1B1 (Homo sapiens, UniProt Q9Y6L6)
HKU5-CoV 3CLpro = HKU5-CoV 3CLpro (Bat coronavirus HKU5, UniProt P0C6W4); type: biochemical
SARS-CoV-2 [11] = assay: Antiviral activity in A549-ACE2 cells, high content imaging of virus N protein; type: cell-based, USA-WA1/2020 SARS-CoV-2; settings: for EC50 / EC90: Severe acute respiratory syndrome coronavirus 2, A549-ACE2
OATP1B3 = OATP1B3 (Homo sapiens, UniProt Q9NPD5)
Human Cathepsin B = Human Cathepsin B (Homo sapiens, UniProt P07858); type: biochemical
[12] = continuous IV infusion, 4 days, male rats
in vivo = settings: rat, po, 2 mg/kg
Human Chymotrypsin = type: biochemical
[13] = IV, 1 or 2 mg/kg, across species
[14] = Severe acute respiratory syndrome coronavirus 2, HeLa-ACE2, 24 h

Chain of OCT1 (O15245 whole entry): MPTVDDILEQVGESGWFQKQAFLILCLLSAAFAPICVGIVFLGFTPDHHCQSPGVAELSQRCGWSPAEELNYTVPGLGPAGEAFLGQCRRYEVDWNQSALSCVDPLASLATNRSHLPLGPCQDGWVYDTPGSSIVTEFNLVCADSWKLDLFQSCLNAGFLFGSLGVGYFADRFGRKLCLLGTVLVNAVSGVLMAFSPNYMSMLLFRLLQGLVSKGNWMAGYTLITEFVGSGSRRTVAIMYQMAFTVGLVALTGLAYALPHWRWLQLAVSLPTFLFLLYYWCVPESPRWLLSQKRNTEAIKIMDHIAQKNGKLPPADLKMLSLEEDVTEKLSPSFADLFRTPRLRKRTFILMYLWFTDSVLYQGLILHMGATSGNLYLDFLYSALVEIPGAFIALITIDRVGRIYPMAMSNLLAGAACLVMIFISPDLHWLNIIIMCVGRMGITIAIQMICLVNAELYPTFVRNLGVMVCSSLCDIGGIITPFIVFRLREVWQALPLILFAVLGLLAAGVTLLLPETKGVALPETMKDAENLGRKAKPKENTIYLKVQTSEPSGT
Chain of OCT2 (O15244 whole entry): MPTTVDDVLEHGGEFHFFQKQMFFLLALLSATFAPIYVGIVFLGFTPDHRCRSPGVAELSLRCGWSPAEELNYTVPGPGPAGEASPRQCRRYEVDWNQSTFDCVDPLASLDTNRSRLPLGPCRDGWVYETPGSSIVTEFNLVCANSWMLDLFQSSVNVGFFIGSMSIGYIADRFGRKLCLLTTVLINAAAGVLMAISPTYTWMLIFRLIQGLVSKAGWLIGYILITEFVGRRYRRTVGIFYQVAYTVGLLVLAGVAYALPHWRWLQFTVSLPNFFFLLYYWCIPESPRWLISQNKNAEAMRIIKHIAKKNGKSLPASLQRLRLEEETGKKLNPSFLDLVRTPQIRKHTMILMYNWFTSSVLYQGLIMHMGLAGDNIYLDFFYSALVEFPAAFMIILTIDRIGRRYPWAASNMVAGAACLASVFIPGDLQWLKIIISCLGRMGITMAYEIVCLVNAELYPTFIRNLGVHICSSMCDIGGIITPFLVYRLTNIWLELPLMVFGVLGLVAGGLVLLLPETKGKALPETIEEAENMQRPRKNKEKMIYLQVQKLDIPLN
Chain of Pgp (P08183 whole entry): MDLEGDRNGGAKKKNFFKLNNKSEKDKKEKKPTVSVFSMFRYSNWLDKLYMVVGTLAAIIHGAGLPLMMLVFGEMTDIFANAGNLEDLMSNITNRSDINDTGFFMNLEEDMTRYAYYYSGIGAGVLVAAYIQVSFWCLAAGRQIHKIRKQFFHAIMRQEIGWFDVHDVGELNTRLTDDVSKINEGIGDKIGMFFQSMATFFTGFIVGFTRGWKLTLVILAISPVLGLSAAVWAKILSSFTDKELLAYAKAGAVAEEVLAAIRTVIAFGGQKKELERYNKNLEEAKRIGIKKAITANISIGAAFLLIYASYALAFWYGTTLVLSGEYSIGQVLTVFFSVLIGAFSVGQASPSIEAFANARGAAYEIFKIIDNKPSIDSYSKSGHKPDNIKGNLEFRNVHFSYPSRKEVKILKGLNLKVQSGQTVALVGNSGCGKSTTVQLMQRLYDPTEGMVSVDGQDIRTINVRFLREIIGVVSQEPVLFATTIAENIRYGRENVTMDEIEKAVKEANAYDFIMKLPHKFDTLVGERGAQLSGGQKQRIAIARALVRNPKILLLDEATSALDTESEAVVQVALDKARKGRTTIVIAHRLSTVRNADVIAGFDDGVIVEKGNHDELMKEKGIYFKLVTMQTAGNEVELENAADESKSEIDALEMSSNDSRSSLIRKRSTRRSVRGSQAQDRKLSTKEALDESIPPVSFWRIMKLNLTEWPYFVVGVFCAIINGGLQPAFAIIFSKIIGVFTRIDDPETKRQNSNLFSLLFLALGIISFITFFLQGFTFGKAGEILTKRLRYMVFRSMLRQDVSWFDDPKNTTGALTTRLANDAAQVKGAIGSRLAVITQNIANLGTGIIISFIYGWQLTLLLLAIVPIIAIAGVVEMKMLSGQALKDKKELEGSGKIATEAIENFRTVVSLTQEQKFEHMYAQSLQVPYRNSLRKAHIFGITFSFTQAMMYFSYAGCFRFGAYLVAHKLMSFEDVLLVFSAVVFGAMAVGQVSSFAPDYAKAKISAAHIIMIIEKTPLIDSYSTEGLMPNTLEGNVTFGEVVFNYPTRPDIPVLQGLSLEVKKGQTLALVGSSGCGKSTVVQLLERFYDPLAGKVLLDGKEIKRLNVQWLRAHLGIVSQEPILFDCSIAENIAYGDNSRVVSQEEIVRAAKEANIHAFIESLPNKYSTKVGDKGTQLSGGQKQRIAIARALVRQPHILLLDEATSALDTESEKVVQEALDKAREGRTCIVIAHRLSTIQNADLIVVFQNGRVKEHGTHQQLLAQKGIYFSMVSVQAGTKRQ
Chain of HKU4-CoV 3CLpro (P0C6W3 3292-3597 limits assumed): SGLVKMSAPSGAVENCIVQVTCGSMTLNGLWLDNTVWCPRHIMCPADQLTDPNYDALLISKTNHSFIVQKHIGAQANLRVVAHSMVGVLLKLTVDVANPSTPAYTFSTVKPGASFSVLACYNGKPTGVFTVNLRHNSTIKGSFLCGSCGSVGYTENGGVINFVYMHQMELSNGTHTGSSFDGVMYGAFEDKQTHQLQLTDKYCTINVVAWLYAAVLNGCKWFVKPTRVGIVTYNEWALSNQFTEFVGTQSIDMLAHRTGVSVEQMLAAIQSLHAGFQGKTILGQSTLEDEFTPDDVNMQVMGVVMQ
Chain of HKU9-CoV 3CLpro (P0C6W5 3104-3409 limits assumed): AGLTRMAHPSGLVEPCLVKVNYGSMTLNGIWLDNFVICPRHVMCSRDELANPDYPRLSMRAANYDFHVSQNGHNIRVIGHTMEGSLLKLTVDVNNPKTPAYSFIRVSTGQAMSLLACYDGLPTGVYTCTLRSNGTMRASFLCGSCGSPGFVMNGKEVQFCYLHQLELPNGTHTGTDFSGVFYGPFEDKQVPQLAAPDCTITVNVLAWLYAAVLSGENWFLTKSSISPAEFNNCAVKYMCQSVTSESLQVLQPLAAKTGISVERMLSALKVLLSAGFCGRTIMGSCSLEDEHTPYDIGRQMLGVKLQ
Chain of CYP2C8 (P10632 whole entry): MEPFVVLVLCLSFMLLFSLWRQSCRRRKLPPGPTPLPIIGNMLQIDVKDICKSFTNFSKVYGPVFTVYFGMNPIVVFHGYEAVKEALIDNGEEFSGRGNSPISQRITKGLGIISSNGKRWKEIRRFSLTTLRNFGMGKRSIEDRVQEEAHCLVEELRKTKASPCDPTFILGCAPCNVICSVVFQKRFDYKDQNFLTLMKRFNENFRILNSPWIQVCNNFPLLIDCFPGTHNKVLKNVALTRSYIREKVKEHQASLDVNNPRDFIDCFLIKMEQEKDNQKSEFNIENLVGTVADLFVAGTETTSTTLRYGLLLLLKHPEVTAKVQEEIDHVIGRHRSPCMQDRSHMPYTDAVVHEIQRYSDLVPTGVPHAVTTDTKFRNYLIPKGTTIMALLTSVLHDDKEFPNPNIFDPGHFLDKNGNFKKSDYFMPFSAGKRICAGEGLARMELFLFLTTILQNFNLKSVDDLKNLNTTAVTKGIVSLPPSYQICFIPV
Chain of PEDV-CoV-2 3CLpro (P0C6Y4 2998-3299): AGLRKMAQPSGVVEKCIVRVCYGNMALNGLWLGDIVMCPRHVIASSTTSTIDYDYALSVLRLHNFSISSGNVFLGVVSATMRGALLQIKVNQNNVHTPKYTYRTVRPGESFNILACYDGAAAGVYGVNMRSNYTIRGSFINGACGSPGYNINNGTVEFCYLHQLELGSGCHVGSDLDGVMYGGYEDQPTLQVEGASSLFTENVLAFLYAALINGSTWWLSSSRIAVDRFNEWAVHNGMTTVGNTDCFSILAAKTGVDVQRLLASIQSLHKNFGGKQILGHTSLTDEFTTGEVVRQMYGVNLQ
Chain of CYP1A2 (P05177 whole entry): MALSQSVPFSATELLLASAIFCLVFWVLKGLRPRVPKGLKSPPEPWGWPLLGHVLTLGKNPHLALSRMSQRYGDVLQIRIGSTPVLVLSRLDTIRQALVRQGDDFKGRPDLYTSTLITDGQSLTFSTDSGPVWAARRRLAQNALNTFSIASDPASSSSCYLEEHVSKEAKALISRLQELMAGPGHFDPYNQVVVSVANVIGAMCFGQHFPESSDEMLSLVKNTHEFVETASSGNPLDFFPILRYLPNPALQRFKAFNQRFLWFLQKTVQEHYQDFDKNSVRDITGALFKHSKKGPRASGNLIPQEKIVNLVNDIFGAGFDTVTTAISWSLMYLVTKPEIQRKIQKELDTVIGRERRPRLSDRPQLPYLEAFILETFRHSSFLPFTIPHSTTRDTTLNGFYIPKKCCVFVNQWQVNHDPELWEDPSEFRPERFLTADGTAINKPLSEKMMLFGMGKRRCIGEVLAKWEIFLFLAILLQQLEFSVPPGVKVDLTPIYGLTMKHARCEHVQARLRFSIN
Chain of BCRP (Q9UNQ0 whole entry): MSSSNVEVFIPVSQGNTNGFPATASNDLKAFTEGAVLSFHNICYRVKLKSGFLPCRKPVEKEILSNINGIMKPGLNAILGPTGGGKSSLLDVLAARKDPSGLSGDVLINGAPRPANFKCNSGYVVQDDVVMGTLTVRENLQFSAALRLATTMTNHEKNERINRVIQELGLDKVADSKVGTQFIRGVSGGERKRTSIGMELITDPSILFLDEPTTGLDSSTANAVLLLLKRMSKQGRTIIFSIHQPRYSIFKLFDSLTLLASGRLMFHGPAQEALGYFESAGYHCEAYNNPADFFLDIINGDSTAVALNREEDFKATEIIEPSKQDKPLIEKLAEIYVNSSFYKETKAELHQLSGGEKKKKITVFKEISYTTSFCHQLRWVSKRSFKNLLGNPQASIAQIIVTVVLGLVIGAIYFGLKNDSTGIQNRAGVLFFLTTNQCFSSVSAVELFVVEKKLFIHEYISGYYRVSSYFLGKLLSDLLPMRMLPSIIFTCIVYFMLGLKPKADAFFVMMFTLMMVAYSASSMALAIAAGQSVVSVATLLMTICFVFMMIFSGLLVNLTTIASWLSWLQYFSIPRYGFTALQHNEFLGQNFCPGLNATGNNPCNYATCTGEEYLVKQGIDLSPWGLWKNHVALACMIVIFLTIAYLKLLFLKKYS

Question: With `COc1cccc2[nH]c(C(=O)N[C@@H](CC(C)C)C(=O)N[C@@H](C[C@@H]3CCNC3=O)C(=O)CO)cc12` [parent compound, N-((1S)-1-{[((1S)-3-hydroxy-2-oxo-1-{[(3S)-2-oxopyrrolidin-3-yl]methyl}propyl)amino]carbonyl}-3-methylbutyl)-4-methoxy-1H-indole-2-carboxamide] as the compound, how does the IC50 (CYP1A2) read?
Answer: > 200000 nM

Question: And the Ki (MHV-CoV 3CLpro)?
Answer: 1.2 ± 0.9 nM

Question: What about the IC50 (CYP2C19) of the same compound?
Answer: > 200000 nM

Question: And the IC50 (Human Cathepsin D)?
Answer: > 11100 nM

Question: What about the IC50 (CYP2D6) of the same compound?
Answer: > 200000 nM

Question: And the plasma clearances [1, 13]?
Answer: 35-60 % liver blood flow

Question: And the volumes of distribution [1, 13]?
Answer: < 1 L/kg

Question: And the “eliminated unchanged in the urine” value ([1]; rat, dog and monkey)?
Answer: approximately 10%

Question: What about the EC90 ([2]; in the presence of the P-gp inhibitor) of the same compound?
Answer: 480 nM

Question: And the EC50 ([2]; read-out: EC50 μM GeoMean (95% CI))?
Answer: 0.23 µM

Question: And the EC90 (SARS-CoV-2 [3]; Severe acute respiratory syndrome coronavirus 2, HAE, antiviral time course, preliminary data, read-out: unbound EC90)?
Answer: < 500 nM

Question: What about the IC50 (HIV-1 protease) of the same compound?
Answer: > 11100 nM

Question: And the EC90 (SARS-CoV-2 [4])?
Answer: 400 nM

Question: And the EC50 (SARS-CoV-2 [4]; [14])?
Answer: 144 nM

Question: What about the EC90 (SARS-CoV-2 [4]; [14]) of the same compound?
Answer: 398 nM

Question: What about the CC50 (in vitro) of the same compound?
Answer: > 10000 nM

Question: And the IC50 (CYP2C9)?
Answer: > 200000 nM

Question: And the IC50 (CYP2C8)?
Answer: > 200000 nM

Question: And the IC50 (CYP3A)?
Answer: > 200000 nM

Question: What about the “projected unbound human Cmax” value (at the projected human efficacious dose) of the same compound?
Answer: 500 nM

Question: And the predicted half-life (humans, predicted)?
Answer: approximately 2 h

Question: And the “predicted steady state volume of distribution (Vdss)” value (humans, predicted)?
Answer: 1 L/kg

Question: What about the “predicted plasma clearance (CLp)” value (humans, predicted from in vitro metabolism and animal PK) of the same compound?
Answer: ~6 mL/min/kg

Question: What about the IC50 (OAT1) of the same compound?
Answer: > 20000 nM

Question: What about the Ki (IBV-CoV-2 3CLpro) of the same compound?
Answer: 4 ± 0.4 nM

Question: What about the “time dependent inhibition of CYP3A4/5” value (CYP3A4/5) of the same compound?
Answer: weak signal

Question: What about the Ki (PEDV-CoV-2 3CLpro) of the same compound?
Answer: 0.3 ± 0.1 nM

Question: What about the “secondary (off-target) pharmacology” value [5] of the same compound?
Answer: minimal potential

Question: And the CC50 (Vero E6-enACE2 cells; efflux inhibitor 0)?
Answer: > 100 µM

Question: And the CC50 (Vero E6-enACE2 cells; efflux inhibitor 0.5 μM)?
Answer: > 100 µM

Question: What about the CC50 (Vero E6-enACE2 cells; efflux inhibitor 2 μM) of the same compound?
Answer: > 100 µM

Question: What about the micronuclei formation [6] of the same compound?
Answer: did not induce micronuclei formation

Question: And the IC50 (BCRP)?
Answer: > 20000 nM

Question: What about the IC50 (OCT2) of the same compound?
Answer: > 20000 nM

Question: And the “unbound CIint” value [7]?
Answer: 14 µL/min/mg

Question: And the IC50 (Human Caspase 2)?
Answer: > 33300 nM

Question: What about the Ki (FIPV-CoV-2 3CLpro) of the same compound?
Answer: 0.1 ± 0.1 nM

Question: And the IC50 (Human Thrombin)?
Answer: > 100000 nM

Question: What about the host cell cytotoxicity (HeLa-ACE2 cells) of the same compound?
Answer: No host cell cytotoxicity was observed

Question: And the IC50 (MATE1)?
Answer: > 20000 nM

Question: And the EC90 [8]?
Answer: 1600 nM

Question: And the IC50 (Pgp)?
Answer: > 20000 nM

Question: What about the Ki (HKU9-CoV 3CLpro) of the same compound?
Answer: 0.8 ± 0.6 nM

Question: And the IC50 (CYP2B6)?
Answer: > 200000 nM

Question: And the IC50 (OCT1)?
Answer: > 20000 nM

Question: What about the CC50 (Vero E6-EGFP cells; efflux inhibitor 0) of the same compound?
Answer: > 100 µM

Question: What about the CC50 (Vero E6-EGFP cells; efflux inhibitor 0.5 μM) of the same compound?
Answer: > 100 µM

Question: What about the CC50 (Vero E6-EGFP cells; efflux inhibitor 2 μM) of the same compound?
Answer: > 50 µM

Question: What about the “hERG current amplitude: no inhibition at up to” value (hERG) of the same compound?
Answer: 300 µM

Question: And the IC50 (MATE2K)?
Answer: > 20000 nM

Question: And the IC50 (OAT3)?
Answer: > 20000 nM

Question: And the SFLogD7.4 [9]?
Answer: 1.7

Question: What about the Ki (HKU4-CoV 3CLpro) of the same compound?
Answer: 0.03 ± 0.08 nM

Question: What about the P-gp substrate status [10] of the same compound?
Answer: known substrate

Question: And the “melting temperature (Tm) of SARS-CoV-2 3CLpro with compound bound” value (SARS-CoV-2 3CLpro)?
Answer: 70.5+/−0.12 °C

Question: And the “CYP involved in the metabolism” value (CYP3A4)?
Answer: major CYP involved in the metabolism

Question: And the IC50 (OATP1B1)?
Answer: > 20000 nM

Question: What about the Ki (HKU5-CoV 3CLpro) of the same compound?
Answer: 0.03 nM

Question: And the EC50 (SARS-CoV-2 [11]; 24 hours post infection)?
Answer: 221 nM

Question: And the EC90 (SARS-CoV-2 [11]; 24 hours post infection)?
Answer: 734 nM

Question: And the EC50 (SARS-CoV-2 [11]; 48 hours post infection)?
Answer: 158 nM

Question: What about the EC90 (SARS-CoV-2 [11]; 48 hours post infection) of the same compound?
Answer: 439 nM

Question: And the “Hill coefficient (m), slope of dose response” value (SARS-CoV-2 [11]; across a range of in vitro antiviral assays)?
Answer: 3

Question: And the IC50 (OATP1B3)?
Answer: > 20000 nM

Question: What about the IC50 (Human Cathepsin B) of the same compound?
Answer: 6120 nM

Question: And the “margin of human cathepsin B activity compared to 3CLpro” value (Human Cathepsin B)?
Answer: 1000 fold

Question: What about the compound-related findings [12] of the same compound?
Answer: minimal, non-adverse effects on clinical chemistry parameters

Question: And the “tolerated dose, highest feasible dose tested” value [12]?
Answer: 246 mg/kg/day

Question: What about the bioavailability (in vivo) of the same compound?
Answer: < 2%

Question: What about the IC50 (Human Chymotrypsin) of the same compound?
Answer: > 100000 nM

Question: Which results are given for `CCC(CC)COC(=O)[C@H](C)N[P@](=O)(OC[C@H]1O[C@@](C#N)(c2ccc3c(N)ncnn23)[C@H](O)[C@@H]1O)Oc1ccccc1` [remdesivir, reference compound]?
Answer: fold reduction in virion replication (SARS-CoV-2 [3]; 0.5 μM): 93.1 fold; fold reduction in virion replication (SARS-CoV-2 [3]; 10 μM): 2590 fold; EC50 (SARS-CoV-2 [4]; [14]): 73.9 nM; EC90 (SARS-CoV-2 [4]; [14]): 168 nM; EC50 (SARS-CoV-2 [11]; 24 hours post infection): 442 nM; EC90 (SARS-CoV-2 [11]; 24 hours post infection): 1190 nM; EC50 (SARS-CoV-2 [11]; 48 hours post infection): 238 nM; EC90 (SARS-CoV-2 [11]; 48 hours post infection): 592 nM
